The source of these data is patent US12319659B2, “Selective ligand for dopamine D3 receptor, preparation method therefor, and pharmaceutical application thereof” (Shenzhen Linglan Bio-Pharmaceutical Technology Co., Ltd, priority 2017, dated 2025).

Data set [1] is described as follows: Solubility assay in water. The data set is classed as physicochemical. An excerpt: (§1) Solubility Assay of the D3 Receptor-Selective Ligand
The target of data set [2] is T1, dopamine D2 receptor (Homo sapiens, UniProt P14416).
T1 construct: expressed in transfected cells; host or cells: Human embryonic kidney-293 cells
As to the kind of experiment: Competitive inhibition test using radioligands ([3H]-sulpiride), D2 receptor. The data set is classed as binding. Conditions: for Ki: [3H]-sulpiride competition, HEK-293 cells, read-out: KiD2R.
Procedure: (§3) Human embryonic kidney-293 cells were cultured in fresh MEM medium containing 10% fetal bovine serum, 100 units of penicillin, and 100 μg/mL streptomycin at 37° C. under 5% CO2. Cells were transfected with DNA plasmids of dopamine D2 and D3 receptors respectively by using polyethylenimine. After transfection for 4 hours, medium was replaced with fresh MEM medium containing fetal bovine serum and the cells were further cultured for 24 hours. The cells were seeded into 24-well plates and cultured for 14-16 hours or overnight. After the medium was discarded, the cells were rinsed with pre-cooled serum-free MEM. Radioligand ([^3H]-sulpiride) and various concentrations of compounds were added into the adherent cells, and incubated in a bath at 4° C. for 150 minutes. The cells were rinsed three times with pre-cooled MEM containing 10 mM HEPES to remove unbound ligands. After the medium was completely removed, the cells were lysed with 1% sodium lauryl sulfate. The remaining radioligands were detected with a liquid scintillation counter to calculate the relative amount of bound compounds.

A short description of data set [3]: Solubility assay in anhydrous ethanol. The data set is classed as physicochemical. Conditions: organic solvent or mixture.
Text: as §1

The target in data set [4] is T2, dopamine D3 receptor (Homo sapiens, UniProt P35462). As to the kind of experiment: cell-based.
Procedure: as §3
Data set [5] relates to 6-OHDA-induced Parkinson's disease rats. Briefly: Rotarod assay in 6-hydroxydopamine-induced Parkinson's disease rats. In kind it is in vivo, Sprague Dawley (SD) rats. The procedure: Experimental Sprague Dawley (SD) rats were randomly divided into an experimental group and a control group. After repeated behavior detection confirmed that there was no rotational behavior, the experiment was performed. Experimental group: rats were anesthetized with a mixture of xylazine (15 mg/kg, i.p.) and ketamine (100 mg/kg, i.p.), and then desipramine hydrochloride (25 mg/kg, s.c.) were used to protect noradrenergic neurons. 6 μg of 6-hydroxydopamine was dissolved in 2.3 μL of 0.9% sterile saline, and injected into the cerebral substantia nigra (antero-posterior −5.4 mm, […] from the bregma which was used as a zero coordinate) at a rate of 0.5 μL/min by using cerebral stereotaxic surgery. Rats in the control group were injected with the same dose of 0.9% sterile saline. After injection, the syringe needle was left in rats for 5 minutes before the needle was slowly withdrawn. After the rats awakened, they were placed in animal facilities for behavioral model evaluation to ensure that 6-hydroxydopamine induced the formation of a model with movement disorders and emotional/motivational disorders. Because hunger is prone to occur as a result of dopamine damage of the midbrain substantia nigra, 20% of rats were given high-calorie food for 1-2 weeks. After 19 days, the D3 receptor-selective ligand was continuously injected intraperitoneally for 3 days. Rats were allowed to accommodate the rotarod on days 19-20, and a rotarod assay was performed on days 21-22.
In general terms: In the rotarod test animals must keep their balance on a rotating rod.

Data set [6] concerns the target T2, dopamine D3 receptor.
Procedure: as §3
Data set [7] addresses T2, dopamine D3 receptor. As to the kind of experiment: Intrinsic functional experiment, CRE luciferase reporter gene assay, D3 receptor. In kind it is cell-based. Details: expressed in transfected cells; host or cells: Human embryonic kidney-293 cells. Conditions: 2 μM forskolin, HEK-293 cells, quinpirole positive control. The procedure: (§2) Human embryonic kidney-293 cells were transfected with complementary DNA of human dopamine D2, D3 and D4 receptors and a luciferase reporter gene transcriptionally controlled by CRE. The cells transfected with an empty vector were used as a negative control. The cells were seeded into 24-well plates, and 2 μM of forskolin and various concentrations of compounds were added. Cells added with quinpirole were used as a positive control group. After four hours' incubation, cells were lysed with cell lysis buffer for 20 minutes and then centrifuged. The supernatant was reacted with 25 μL of luciferase substrate and the expression level of luciferase was detected by using a dual luciferase reporter vector kit.

Data set [8] deals with T3, human dopamine D4 receptor (Homo sapiens, UniProt P21917).
T3 construct: expressed in transfected cells; host or cells: Human embryonic kidney-293 cells
T3 sequence (P21917 1-419): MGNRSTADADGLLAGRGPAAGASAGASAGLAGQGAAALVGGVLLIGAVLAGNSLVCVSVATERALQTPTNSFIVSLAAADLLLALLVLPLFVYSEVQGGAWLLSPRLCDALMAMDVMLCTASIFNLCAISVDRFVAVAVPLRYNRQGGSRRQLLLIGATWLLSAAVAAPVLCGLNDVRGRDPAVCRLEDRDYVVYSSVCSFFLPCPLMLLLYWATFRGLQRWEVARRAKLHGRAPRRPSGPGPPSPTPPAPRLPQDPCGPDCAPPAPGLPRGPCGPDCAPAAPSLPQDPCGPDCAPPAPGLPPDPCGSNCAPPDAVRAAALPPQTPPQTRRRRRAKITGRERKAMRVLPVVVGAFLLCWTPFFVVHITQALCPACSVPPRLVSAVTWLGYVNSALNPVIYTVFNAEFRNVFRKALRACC
Briefly: Intrinsic functional experiment, CRE luciferase reporter gene assay, D4 receptor. Conditions: 2 μM forskolin, HEK-293 cells, quinpirole positive control. In kind it is cell-based. The procedure:
as §2
(In general: In a reporter assay the amount or activity of a reporter protein is the signal.)

Data set [9] addresses T1, dopamine D2 receptor. Briefly: Intrinsic functional experiment, CRE luciferase reporter gene assay, D2 receptor. The data set is classed as cell-based. Conditions: 2 μM forskolin, HEK-293 cells, quinpirole positive control. The procedure:
as §2

Where [10] appears, read: intraperitoneal for 3 days, 6-hydroxydopamine rats.

Structures are written as SMILES. Where a name gives a salt, the structure may show the parent alone.

T1 sequence (P14416 whole entry): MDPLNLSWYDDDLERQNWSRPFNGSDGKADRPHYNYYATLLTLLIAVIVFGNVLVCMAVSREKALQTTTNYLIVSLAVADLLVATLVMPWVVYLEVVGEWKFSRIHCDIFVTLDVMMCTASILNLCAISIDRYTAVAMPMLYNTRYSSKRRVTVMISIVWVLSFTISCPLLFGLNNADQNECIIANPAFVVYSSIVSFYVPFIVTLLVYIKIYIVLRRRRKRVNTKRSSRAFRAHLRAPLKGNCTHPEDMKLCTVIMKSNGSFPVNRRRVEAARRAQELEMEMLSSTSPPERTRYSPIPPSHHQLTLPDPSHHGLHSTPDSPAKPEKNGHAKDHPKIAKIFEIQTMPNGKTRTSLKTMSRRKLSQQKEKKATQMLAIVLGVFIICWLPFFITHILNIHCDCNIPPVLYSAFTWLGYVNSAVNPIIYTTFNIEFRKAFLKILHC
T2 sequence (P35462 whole entry): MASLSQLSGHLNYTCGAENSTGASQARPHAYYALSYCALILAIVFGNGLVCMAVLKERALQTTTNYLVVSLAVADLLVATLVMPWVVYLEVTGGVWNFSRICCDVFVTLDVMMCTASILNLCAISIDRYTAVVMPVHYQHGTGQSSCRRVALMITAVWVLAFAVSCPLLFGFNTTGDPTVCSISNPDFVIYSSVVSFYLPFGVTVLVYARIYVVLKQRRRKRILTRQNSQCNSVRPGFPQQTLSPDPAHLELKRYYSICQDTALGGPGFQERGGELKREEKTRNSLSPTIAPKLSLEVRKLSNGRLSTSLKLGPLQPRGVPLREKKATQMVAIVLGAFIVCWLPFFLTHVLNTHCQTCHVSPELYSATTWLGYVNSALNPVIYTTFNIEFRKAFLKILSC

Regarding `O=C(NCCCCN1CCN(c2ccc(Cl)cc2)CC1)Nc1cnc2ccccc2c1` [8i•HCl, 1-(4-(4-(4-chlorophenyl)piperazin-1-yl)butyl)-3-(quinolin-3-yl)urea], the Solubility in water entry in [1] (1 mg/mL), in data set [1] (3 mg/mL), in [1] (6 mg/mL) and in [1] (12 mg/mL) was “+ (+ indicates that the compound was completely dissolved)” each time. Besides, the Ki at dopamine D2 receptor [2] came to 53100 nM; on dopamine D3 receptor [4], 14.3 nM. In addition, the “D2 Receptor Displacement (%)” value at dopamine D2 receptor [2] (arylpiperazine-arylurea compounds at 100 nM, [3H]-sulpiride, HEK-293 cells (Table 2)) is on record as 15.2 ± 1.6%. The solubility in data set [3] (8.53 mg/mL) and in data set [3] (25.6 mg/mL) was less than 8530 µg/mL each time. Moreover, in data set [5] (6-hydroxydopamine rats), the “effect compared with apomorphine (positive control drug)” value is “comparable to the effect of apomorphine”. Moreover, in [5] (intraperitoneal for 3 days), the “motor dysfunction induced by 6-hydroxydopamine” value was “significantly improved”.

Turning to `O=C(NCCCCN1CCN(c2ccc(Cl)cc2)CC1)Nc1cnc2ccccc2c1` [Compound 8i, 1-(4-(4-(4-chlorophenyl)piperazin-1-yl)butyl)-3-(quinolin-3-yl)urea], the Solubility in water result in data set [1] (1 mg/mL) was “+ (+ indicates that the compound was completely dissolved)”; in data set [1] (3 mg/mL), “− (− indicates that the compound was un-dissolved or not completely dissolved)”; in [1] (6 mg/mL), “− (− indicates that the compound was un-dissolved or not completely dissolved)”; in data set [1] (12 mg/mL), “− (− indicates that the compound was un-dissolved or not completely dissolved)”. Besides, the selectivity ratio on dopamine D3 receptor [6] was greater than 10000. For the same compound, the Ki on dopamine D2 receptor [2] is greater than 79600 nM; at dopamine D3 receptor [4], 7.4 nM. In addition, the inhibition at dopamine D2 receptor [2] ([…], arylpiperazine-arylurea compounds at 100 nM, [3H]-sulpiride, HEK-293 cells (Table 2), read-out: D2 Receptor Displacement (%)) is 10.2 ± 6.7%. In addition, the “activation of signaling pathways downstream of D3 receptors” value on dopamine D3 receptor [7] was “activated signaling pathways downstream of D3 receptors”. In addition, the “activation of signaling pathways downstream of D4 receptors (printed as D3 receptors)” value in data set [8] is “didn't activate”. The results for the solubility in data set [3] (3.3 mg/mL), in data set [3] (5 mg/mL) and in [3] (10 mg/mL) were greater than 3300 µg/mL, less than 5000 µg/mL and less than 5000 µg/mL, respectively. The “activation of signaling pathways downstream of D2 receptors” value at dopamine D2 receptor [9] is reported as “didn't activate”. Further, the frequency of falling entry in [5] (setting [10]) is listed as “reduced the frequency of falling”. The latency to fall entry in data set [5] (setting [10]) is reported as “increased the latency to fall”.
